In brackets after ≈: the same amount, converted by molar mass. Blank lines part the entries; values can stand above or below the compound they belong to.
What was measured:
Mus musculus [1] = species: Mus musculus; test: Inhibitory activity against Streptococcus pyogenes in mice; type: functional
Mus musculus [2] = species: Mus musculus; test: Inhibitory activity against Staphylococcus aureus in mice; type: functional
Mus musculus [3] = species: Mus musculus; test: Inhibitory activity against Streptococcus pneumoniae in mice; type: functional
[4] = Inhibitory activity against VanB enterococci; Range is 0.016-1 ug/mL; type: functional
Streptococcus pyogenes = test: Inhibitory activity against Streptococcus pyogenes; type: functional
Staphylococcus aureus [5] = test: Inhibitory activity against MRSA; type: functional
Enterococcus faecium [6] = test: Inhibitory activity against VanA strain of E. faecium; Range is 0.03-2 ug/mL; type: functional
Streptococcus pneumoniae [7] = test: Inhibitory activity against Streptococcus pneumoniae; type: functional
Enterococcus faecalis [8] = test: Inhibitory activity against VanA strain of E. faecalis; Range is 0.03-2 ug/mL
Staphylococcus sp. [9] = test: Inhibitory activity against Staphylococci; type: functional
Enterococcus faecium [10] = test: Inhibitory activity against strain of Enterococcus faecium; type: functional
Streptococcus sp. [11] = test: Inhibitory activity against all group A and B Streptococci; type: functional
Enterococcus faecalis [12] = test: Inhibitory activity against strain of Enterococcus faecalis; type: functional
Staphylococcus aureus [13] = test: Inhibitory activity against strain of Staphylococcus aureus; type: functional
Bacteroides fragilis = test: Inhibitory activity against strain of Bacteroides fragilis; type: functional
Staphylococcus aureus [14] = test: Inhibitory activity against ciprofloxacin-resistant Staphylococcus aureus; type: functional
Pseudomonas aeruginosa = test: Inhibitory activity against ciprofloxacin-resistant Pseudomonas aeruginosa; type: functional
Enterococcus faecium [15] = test: Inhibitory activity against vancomycin-resistant Enterococcus faecium; type: functional
Streptococcus pneumoniae [16] = test: Inhibitory activity against penicillin-resistant Streptococcus pneumoniae; type: functional
Staphylococcus aureus [17] = test: In vitro inhibitory activity against ciprofloxacin resistant MRSA; type: functional
Streptococcus sp. [18] = test: In vitro inhibitory activity against Streptococci; Range is 0.06-0.25 ug/mL; type: functional
Enterobacter = test: In vitro inhibitory activity against Enterobacteriaceae; Range is 0.016-0.5 ug/mL; type: functional
Citrobacter freundii = test: In vitro inhibitory activity against Citrobacter freundii; type: functional
Serratia marcescens = test: In vitro inhibitory activity against Serratia marcescens; type: functional
Enterococcus faecalis [19] = test: In vitro inhibitory activity against Enterococcus faecalis; type: functional
Providencia sp. = test: In vitro inhibitory activity against Providencia species; type: functional
Staphylococcus aureus [20] = test: Inhibitory activity against Staphylococcus aureus; type: functional
[21] = test system: Staphylococcus epidermidis; test: Inhibitory activity against Staphylococcus epidermidis; type: functional
Staphylococcus sp. [22] = test: Inhibitory activity against ciprofloxacin resistant staphylococci; Range is 2-8 ug/mL; type: functional
Streptococcus pneumoniae [23] = test: Inhibitory activity against S. pneumoniae; Range is 0.12-0.25 ug/mL; type: functional
Enterococcus faecalis [24] = test: Inhibitory activity against strain of E. faecalis; Range is 0.25-2 ug/mL; type: functional
Enterococcus faecalis [25] = test: Inhibitory activity against VanA strain of E. faecalis; Range is 2-64 ug/mL; type: functional
Enterococcus = test: Inhibitory activity against vancomycin-resistant enterococci; type: functional
Enterococcus faecium [26] = test: Inhibitory activity against VanA strain of E. faecium; Range is 2-64 ug/mL; type: functional
Bacteria = test: Inhibitory activity against vancomycin-sensitive Gram-positive bacteria; type: functional
Enterococcus faecium [27] = test: Inhibitory activity against strain of Enterococcus faecium resistant to both vancomycin and teicoplanin; type: functional
Enterococcus faecium [28] = test: Inhibitory activity against VanA strain of E. faecium; Range is 64-2108 ug/mL; type: functional
Enterococcus faecalis [29] = test: Inhibitory activity against strain of Enterococcus faecalis resistant to both vancomycin and teicoplanin

Compound: CNC(=O)C[C@@H]1NC(=O)c2csc(n2)-c2ccc(-c3nc(C4=N[C@H](C(=O)N5CCC[C@H]5C(N)=O)CO4)cs3)nc2-c2csc(n2)-c2csc(n2)[C@H]([C@@H](O)c2ccccc2)NC(=O)CNC(=O)c2nc(sc2COC)[C@H](C(C)C)NC(=O)c2nc1sc2C
ED50 (Mus musculus [1]): 9.1 mg/kg | ED50 (Mus musculus [2]): 1.8 mg/kg | ED50 (Mus musculus [3]): 15.2 mg/kg

MIC [4]: 0.016 µg/mL (≈ 0.00898 µM) | MIC (Streptococcus pyogenes): < 0.06 µg/mL | MIC (Staphylococcus aureus [5]): ≤ 0.5 µg/mL | MIC (Enterococcus faecium [6]): 0.03 µg/mL (≈ 0.0168 µM) | MIC (Streptococcus pneumoniae [7]): < 0.008 µg/mL | MIC (Enterococcus faecalis [8]): 0.03 µg/mL (≈ 0.0168 µM)
Compound: CCCCCOc1ccc(CN[C@@]2(C)C[C@@H](O[C@H]3[C@H](Oc4c5cc6cc4Oc4ccc(cc4Cl)[C@@H](C[C@H]4C[C@](C)(N)[C@@H](O)[C@H](C)O4)[C@]4(C)NC(=O)[C@H](NC(=O)[C@@H]6NC(=O)[C@H](CC(N)=O)NC(=O)[C@H](NC(=O)[C@@H](CC(C)C)NC)[C@H](O)c6ccc(c(Cl)c6)O5)c5ccc(O)c(c5)-c5c(O)cc(O)cc5[C@@H](C(=O)O)NC4=O)O[C@H](CO)[C@@H](O)[C@@H]3O)O[C@@H](C)[C@@H]2O)cc1

Compound: N[C@@H]1CN(c2c(F)cc3c(=O)c(C(=O)O)cn(C4C[C@@H]4F)c3c2Cl)CC12CC2 (single isomer, unassigned) [SITAFLOXACIN ANHYDROUS]
MIC90 (Staphylococcus sp. [9]): ≤ 0.06 µg/mL | MIC90 (Staphylococcus aureus [5]): 1 µg/mL (≈ 2.44 µM) | MIC90 (Enterococcus faecium [10]): 0.5 µg/mL (≈ 1.22 µM) | MIC90 (Streptococcus sp. [11]): ≤ 0.125 µg/mL | MIC90 (Enterococcus faecalis [12]): 1 µg/mL (≈ 2.44 µM)

Compound: Cc1c(N2CC[C@H](N)C2)c(F)cn2c(=O)c(C(=O)O)cc(C3CC3)c12 [ABT-719]
MIC90 (Staphylococcus aureus [13]): 0.015 µg/mL (≈ 0.0434 µM) | MIC90 (Bacteroides fragilis): 0.06 µg/mL (≈ 0.174 µM) | MIC90 (Staphylococcus aureus [14]): 0.25 µg/mL (≈ 0.724 µM) | MIC90 (Pseudomonas aeruginosa): 2 µg/mL (≈ 5.79 µM) | MIC90 (Enterococcus faecium [15]): 0.5 µg/mL (≈ 1.45 µM) | MIC90 (Streptococcus pneumoniae [16]): 0.03 µg/mL (≈ 0.0869 µM)

Compound: NC1CCN(c2c(F)cc3c(=O)c(C(=O)O)cn(C4CC4)c3c2Cl)C1 (centres undefined) [CLINAFLOXACIN]
MIC90 (Staphylococcus aureus [17]): 1 µg/mL (≈ 2.73 µM) | MIC90 (Streptococcus sp. [18]): 0.06 µg/mL (≈ 0.164 µM) | MIC90 (Enterobacter): 0.016 µg/mL (≈ 0.0437 µM) | MIC90 (Citrobacter freundii): 0.5 µg/mL (≈ 1.37 µM) | MIC90 (Serratia marcescens): 0.5 µg/mL (≈ 1.37 µM) | MIC90 (Enterococcus faecalis [19]): 0.5 µg/mL (≈ 1.37 µM) | MIC90 (Providencia sp.): 0.5 µg/mL (≈ 1.37 µM)

MIC90 (Staphylococcus aureus [20]): 1 µg/mL (≈ 1.45 µM) | MIC90 [21]: 0.5 µg/mL (≈ 0.724 µM)
Compound: CCN(CC)CCS(=O)(=O)[C@@H]1CCN2C(=O)c3coc(n3)CC(=O)C[C@H](O)/C=C(C)/C=C/CNC(=O)/C=C/[C@@H](C)[C@@H](C(C)C)OC(=O)[C@@H]12 [DALFOPRISTIN]

Compound: N[C@@H]1[C@H]2CN(c3nc4c(cc3F)c(=O)c(C(=O)O)cn4-c3ccc(F)cc3F)C[C@@H]12 [TROVAFLOXACIN]
MIC (Staphylococcus sp. [22]): 2 µg/mL (≈ 4.8 µM) | MIC (Streptococcus pneumoniae [23]): 0.12 µg/mL (≈ 0.288 µM) | MIC (Enterococcus faecalis [24]): 0.25 µg/mL (≈ 0.6 µM)

Compound: CN[C@H](CC(C)C)C(=O)N[C@H]1C(=O)N[C@@H](CC(N)=O)C(=O)N[C@H]2C(=O)N[C@H]3C(=O)N[C@](C)(C(=O)N[C@H](C(=O)O)c4cc(O)cc(O)c4-c4cc3ccc4O)[C@H](C[C@H]3C[C@](C)(N)[C@@H](O)[C@H](C)O3)c3ccc(c(Cl)c3)Oc3cc2cc(c3O[C@@H]2O[C@H](CO)[C@@H](O)[C@H](O)[C@H]2O[C@@H]2C[C@](C)(N)[C@@H](O)[C@H](C)O2)Oc2ccc(cc2Cl)[C@H]1O [VANCOMYCIN DERIVATIVE (EPIVANCOMYCIN LINKED WITH ADDITIONAL AMINO SUGAR)]
MIC (Enterococcus faecalis [25]): 2 µg/mL (≈ 1.25 µM) | MIC (Enterococcus): 500 µg/mL (≈ 312 µM) | MIC (Enterococcus faecium [26]): 2 µg/mL (≈ 1.25 µM) | MIC (Bacteria): 32 µg/mL (≈ 19.9 µM)

Compound: CN[C@H](CC(C)C)C(=O)N[C@H]1C(=O)N[C@@H](CC(N)=O)C(=O)N[C@H]2C(=O)N[C@H]3C(=O)N[C@H](C(=O)N[C@H](C(=O)O)c4cc(O)cc(O)c4-c4cc3ccc4O)[C@H](O)c3ccc(c(Cl)c3)Oc3cc2cc(c3O[C@@H]2O[C@H](CO)[C@@H](O)[C@H](O)[C@H]2O[C@H]2C[C@](C)(N)[C@H](O)[C@H](C)O2)Oc2ccc(cc2Cl)[C@H]1O [VANCOMYCIN]
MIC (Enterococcus faecium [27]): ≥ 128 µg/mL | MIC (Enterococcus faecium [28]): 64 µg/mL (≈ 44.2 µM) | MIC (Enterococcus faecalis [29]): ≥ 128 µg/mL

Source: ChEMBL document CHEMBL1129675, “New directions in antibacterial research” (1996)
